# Measured values published in US9695155B2, “Herbicidal substituted pyrimidinyloxy benzene compounds” (E. I. DU PONT DE NEMOURS AND COMPANY, priority 2013, dated 2017).
# What was measured:
# palmer pigweed = assay: Test E postemergence; type: in vivo, Amaranthus palmeri; conditions: for pest or weed control at 31 g/ha / pest or weed control at 62 g/ha / pest or weed control at 125 g/ha / pest or weed control at 250 g/ha / pest or weed control at 16 g/ha: post-emergence, read-out: Plant response rating, Pigweed, Palmer; for pest or weed control at 250 g/ha: 250 g ai/ha
# Source text: Seeds of plant species selected from corn (Zea mays), soybean (Glycine max), velvetleaf (Abutilon theophrasti), lambsquarters (Chenopodium album), wild poinsettia (Euphorbia heterophylla), palmer pigweed (Amaranthus palmeri), waterhemp (common waterhemp, Amaranthus rudis), surinam grass (Brachiaria decumbens), large (Lg) crabgrass (Digitaria sanguinalis), Brazilian crabgrass (Digitaria horizontalis), fall panicum (Panicum dichotomiflorum), giant foxtail (Setaria faberii), green foxtail (Setaria viridis), goosegrass (Eleusine indica), johnsongrass (Sorghum halepense), ragweed (common ragweed, Ambrosia elatior), barnyardgrass (Echinochloa crus-galli), sandbur (southern sandbur, Cenchrus echinatus), arrowleaf sida (Sida rhombifolia), Italian ryegrass (Lolium multiflorum), dayflower (Virginia (VA) dayflower, Commelina virginica), field bindweed (Convolvulus arvensis), morningglory (Ipomoea coccinea), nightshade (eastern black nightshade, Solanum ptycanthum), kochia (Kochia scoparia), yellow nutsedge (Cyperus esculentus), cocklebur (common cocklebur, Xanthium strumarium), smartweed (ladysthumb smartweed, and hairy beggarticks (Bidens pilosa), were planted into a silt loam soil and treated preemergence with test chemicals formulated in a non-phytotoxic solvent mixture which included a surfactant.
# At the same time, plants from these crop and weed species and also horseweed (Canada horseweed, Conyza canadensis), waterhemp_RES1, (ALS & Triazine resistant common waterhemp, Amaranthus rudis), and waterhemp_RES2, (ALS & HPPD resistant common waterhemp, Amaranthus rudis) were planted in pots containing Redi-Earth® planting medium (Scotts Company, 14111 Scottslawn Road, Marysville, Ohio 43041) comprising spaghnum peat moss, vermiculite, wetting agent and starter nutrients were treated with postemergence applications of test chemicals formulated in the same manner. Plants ranged in height from 2 to 18 cm for postemergence treatments (1- to 4-leaf stage). Treated plants and controls were maintained in a greenhouse for 14 to 21 days, after which time all species were compared to controls and visually evaluated. Plant response ratings, summarized in Table E, are based on a scale of 0 to 100 where 0 is no effect and 100 is complete control. A dash (-) response means no test result.
# [1] = test system: waterhemp_RES1 (ALS & Triazine resistant common waterhemp); assay: Test E postemergence; type: in vivo, Amaranthus rudis
# In short: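 Compound in a non-phytotoxic solvent mixture with surfactant was applied preemergence to seeds in silt loam soil, or postemergence to plants 2 to 18 cm tall grown in peat-based potting medium. Plants were kept in a greenhouse for 14 to 21 days, then rated visually against untreated controls on a 0 (no effect) to 100 (complete control) scale.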
# [2] = Postemergence, 31 g ai/ha, scale 0 to 100
# [3] = Postemergence, 62 g ai/ha, scale 0 to 100
# [4] = Postemergence, 125 g ai/ha, scale 0 to 100
# [5] = postemergence, 16 g ai/ha, scale 0 to 100, 0 no effect, 100 complete control
# [6] = Postemergence, 250 g ai/ha, scale 0 to 100
# [7] = postemergence, 8 g ai/ha, scale 0 to 100, 0 no effect, 100 complete control
Compound,pest or weed control at 31 g/ha (palmer pigweed; [2]),pest or weed control at 62 g/ha (palmer pigweed; [3]),pest or weed control at 125 g/ha (palmer pigweed; [4]),"pest or weed control at 250 g/ha (palmer pigweed; Postemergence, scale 0 to 100)",pest or weed control at 16 g/ha (palmer pigweed; [5]),"Plant response rating, Waterhemp_RES1 [1, 2]","Plant response rating, Waterhemp_RES1 [1, 3]","Plant response rating, Waterhemp_RES1 [1, 4]","Plant response rating, Waterhemp_RES1 [1, 6]","Plant response rating, Waterhemp_RES1 [1, 5]","Plant response rating, Pigweed, Palmer (palmer pigweed; [2])","Plant response rating, Pigweed, Palmer (palmer pigweed; [3])","Plant response rating, Pigweed, Palmer (palmer pigweed; [4])","Plant response rating, Pigweed, Palmer (palmer pigweed; [7])","Plant response rating, Pigweed, Palmer (palmer pigweed; [5])","Plant response rating, Waterhemp_RES1 [1, 7]"
"N#Cc1cccc(Oc2ncc(Cl)cn2)c1-n1cc(C(F)(F)F)cn1 [Compound 58, 3-[(5-chloro-2-pyrimidinyl)oxy]-2-[4-(trifluoromethyl)-1H-pyrazol-1-yl]benzonitrile]",95%,100%,100%,100%,90%,80,95,95,100,80,–,–,–,–,–,–
"N#Cc1cccc(Oc2ncc(Br)cn2)c1-n1cc(C(F)(F)F)cn1 [Compound 59, 3-[(5-bromo-2-pyrimidinyl)oxy]-2-[4-(trifluoromethyl)-1H-pyrazol-1-yl]benzonitrile]",80%,85%,100%,100%,75%,80,90,95,100,70,–,–,–,–,–,–
Clc1cnc(Oc2cccc(Br)c2-n2cc(Br)cn2)nc1 [Compound 65],–,–,–,–,–,85,90,98,–,70,50,50,60,10,20,65
